# From US12686668B2, “Leukotriene synthesis inhibitors” (Naegis Pharmaceuticals Inc., priority 2019, dated 2026)
# Tests used:
# [1] = system: LTC4 production in MC/9 cells; test: MC/9 HPLC assay, inhibition of LTC4 production; assay type: cell-based; conditions: Mus musculus; for inhibition at 1 µM: MC9, Table 2 column 3, no concentration in head (1 μM according to b732), read-out: % Inhibition LTC4; for inhibition at 3 µM: MC9, 3 μM, A23187 stimulated
# Description: (§1) Cultured MC/9 cells (3×10^6 cells) in 1 mL HBSS were pre-incubated with a series of concentrations of compound solubilized in DMSO for 30 minutes. Production of leukotrienes were stimulated with the addition of 1 μM calcium ionophore (A23187), diluted from a 4 mM DMSO stock in HBSS, and incubated at room temperature for 20 minutes. The reaction was stopped with the addition of 500 μL of methanol containing 20 ng/mL prostaglandin B2 as an internal standard. Samples were collected and stored at −20° C. at least 2 hr or overnight before centrifuged at 13,000 rpm for 15 minutes and loaded onto C18 SEP-PAK columns (Canadian Lifesciences IS12000) for solid phase extraction. The leukotrienes were analyzed by HPLC using an ACE C18 column (4.5 mm×150 mm, 5 m) eluted with acetonitrile/methanol/water mixture with H3PO4, pH 3.5 (37:26:37) with a flow rate of 1.8 mL/min. The amount of LTB4 (Cayman Chemical, 20110) and LTC4 (Cayman Chemical, 20210) were calculated based on reference standards and the level of inhibition of LTB4 production induced by the test compounds was calculated relative to control samples. The results are provided in Table 2, where Compound No. refers to the compounds identified in Table 1.
# [2] = system: LTB4 production in MC/9 cells; test: MC/9 HPLC assay, inhibition of LTB4 production; assay type: cell-based; conditions: Mus musculus, MC9, Table 2 column 4, no concentration in head (1 μM according to b732), read-out: % Inhibition LTB4
# Description: as §1
# [3] = target: T1, recombinant human leukotriene A4 hydrolase enzyme (Homo sapiens, UniProt P09960); test: Amino-peptidase assay, alanine-4-nitroanalide; assay type: biochemical; conditions: negative values = augmented peptidase activity, read-out: % Inhibition aminopeptidase-Alanine-4-nitroanalide activity of LTA4H (3 μM)
# T1 construct: purchased Cayman Chemical 10007817
# T1 sequence (P09960 1-611): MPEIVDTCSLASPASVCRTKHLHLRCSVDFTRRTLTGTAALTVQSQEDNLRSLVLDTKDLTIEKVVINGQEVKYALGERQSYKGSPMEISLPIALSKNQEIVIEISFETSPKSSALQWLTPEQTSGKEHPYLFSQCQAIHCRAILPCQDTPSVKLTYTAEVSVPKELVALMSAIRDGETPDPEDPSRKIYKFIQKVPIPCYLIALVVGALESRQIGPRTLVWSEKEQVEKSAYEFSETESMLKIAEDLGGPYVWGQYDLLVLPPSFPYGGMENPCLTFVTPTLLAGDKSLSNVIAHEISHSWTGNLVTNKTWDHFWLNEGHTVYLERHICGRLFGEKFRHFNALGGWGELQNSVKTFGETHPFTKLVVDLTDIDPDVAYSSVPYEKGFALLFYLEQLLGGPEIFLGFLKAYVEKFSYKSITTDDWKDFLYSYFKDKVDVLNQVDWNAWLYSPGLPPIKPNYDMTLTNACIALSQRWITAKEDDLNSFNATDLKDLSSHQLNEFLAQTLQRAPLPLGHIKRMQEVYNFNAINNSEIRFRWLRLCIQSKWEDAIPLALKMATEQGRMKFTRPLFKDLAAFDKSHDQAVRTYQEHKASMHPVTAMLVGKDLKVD
# Description: A series of compound concentrations were pre-incubated in the absence of light with 0.5 μg of recombinant human leukotriene A4 hydrolase enzyme (Cayman Chemical 10007817) in 50 μL assay buffer (50 mM Tris-HCl, 100 mM KCl). The reaction was stimulated by adding 50 μL 6 mM alanine-4-nitroanilide (Sigma Aldrich A9325) in assay buffer. The amount of amino-peptidase activity was measured by determining the change in absorbance at 405 nm due to 4-nitroanaline production and comparing the rate of change to a reference standard (Sigma Aldrich 185310). Amino-peptidase activity was compared to control samples and the level of inhibition was calculated. Compounds that augment peptidase activity are represented by negative values.
inhibition at 3 µM [3],SMILES,inhibition at 1 µM [1],inhibition at 1 µM [2],inhibition at 3 µM [1]
,"CCC(=O)CCc1ccc(Oc2nc3ccccc3s2)c(OC)c1 [Compound 101, 1-[4-(1,3-benzothiazol-2-yloxy)-3-methoxyphenyl]pentan-3-one]",< 10%,< 10%,
75%,"CCC(O)(CCc1ccc(Oc2nc3ccccc3n2C)c(OC)c1)C(F)(F)F (stereo not shown) [Compound 105, 1-[4-(1-methyl-1H-benzimidazol-2-yloxy)-3-methoxyphenyl]-3-(trifluoromethyl)pentan-3-ol]",30 to 50%,,70 to 90%
,"COc1cc(CCC(C)=O)ccc1Oc1nc2ccccc2s1 [Compound 110, 4-[4-(1,3-benzothiazol-2-yloxy)-3-methoxyphenyl]butan-2-one]",< 10%,< 10%,
,"COc1cc(CCC(C)(O)C(F)(F)F)ccc1Oc1nc2ccccc2s1 (stereo not shown) [Compound 111, 4-[4-(1,3-benzothiazol-2-yloxy)-3-methoxyphenyl]-1,1,1-trifluoro-2-methylbutan-2-ol]",,,70 to 90%
,"CCC(O)(CCc1ccc(Oc2nc3ccccc3s2)c(OC2CCCC2)c1)C(F)(F)F (stereo not shown) [Compound 116, 1-[4-(1,3-benzothiazol-2-yloxy)-3-(cyclopentyloxy)-phenyl]-3-(trifluoromethyl)-pentan-3-ol]",< 10%,< 10%,
,"CCOc1cc(CCC(=O)CC)ccc1Oc1nc2ccccc2s1 [Compound 120, 1-[4-(1,3-benzothiazol-2-yloxy)-3-ethoxyphenyl]-pentan-3-one]",,,70 to 90%
,"COc1cc(CCC(C)O)ccc1Oc1nc2ccccc2s1 (stereo not shown) [Compound 122, 4-[4-(1,3-benzothiazol-2-yloxy)-3-methoxyphenyl]-butan-2-ol]",30 to 50%,30 to 50%,
,"COc1cc(CCC(C)(C)O)ccc1Oc1nc2ccccc2s1 [Compound 124, 4-[4-(1,3-benzothiazol-2-yloxy)-3-methoxyphenyl]-2-methylbutan-2-ol]",10 to 30%,,
,"COc1cc(CCC(C)(C)O)ccc1Oc1nc2ccccc2o1 [Compound 126, 4-[4-(1,3-benzoxazol-2-yloxy)-3-methoxyphenyl]-2-methylbutan-2-ol]",< 10%,10 to 30%,
,"CCC(C)(O)CCc1ccc(Oc2nc3ccccc3o2)c(OC)c1 (stereo not shown) [Compound 127, 1-[4-(1,3-benzoxazol-2-yloxy)-3-methoxyphenyl]-3-methylpentan-3-ol]",< 10%,< 10%,
,"CCOc1cc(CCC(O)(c2ccccc2)C(F)(F)F)ccc1Oc1nc2ccccc2s1 (stereo not shown) [Compound 130, 4-[3-ethoxy-4-(1,3-benzothiazol-2-yloxy)phenyl]-1,1,1-trifluoro-2-phenylbutan-2-ol]",< 10%,10 to 30%,
,"COc1cc(CCC(=O)c2ccccc2)ccc1Oc1nc2ccccc2s1 [Compound 131, 3-[4-(1,3-benzothiazol-2-yloxy)-3-methoxyphenyl]-1-phenylpropan-1-one]",,,50 to 70%
,"COc1cc(CCC(O)(c2ccccc2)C(F)(F)F)ccc1Oc1nc2ccccc2s1 (stereo not shown) [Compound 133, 3-[4-(1,3-benzothiazol-2-yloxy)-3-methoxyphenyl]-1-(trifluoromethyl)-1-phenylpropan-1-ol]",< 10%,30 to 50%,
,"COc1cc(CCC(c2ccccc2)N2CCCC2)ccc1Oc1nc2ccccc2s1 (stereo not shown) [Compound 134, 2-{2-methoxyl-4-[3-phenyl-3-(pyrrolidin-1-yl)propyl]phenoxy}-1,3-benzothiazole]",10 to 30%,10 to 30%,
,"CCC(N)CCc1ccc(Oc2nc3ccccc3s2)c(OC)c1 (stereo not shown) [Compound 135, 1-[4-(1,3-benzothiazol-2-yloxy)-3-methoxyphenyl]pentan-3-amine]",10 to 30%,30 to 50%,
,"CCC(CCc1ccc(Oc2nc3ccccc3s2)c(OC)c1)N1CCOCC1 (stereo not shown) [Compound 136, 4-{1-[3-methoxy-4-(1,3-benzothiazol-2-yloxy)phenyl]pentan-3-yl}morpholine]",,,10 to 30%

inhibition at 3 µM [3],SMILES,inhibition at 1 µM [1],inhibition at 1 µM [2],inhibition at 3 µM [1]
,"CC(O)(CCc1ccc(Oc2nc3ccccc3s2)cc1)C(F)(F)F (stereo not shown) [Compound 140, 4-[4-(1,3-benzothiazol-2-yloxy)phenyl]-1,1,1-trifluoro-2-methylbutan-2-ol]",< 10%,< 10%,
,"CCC(C)(O)CCc1ccc(Oc2nc3ccccc3s2)cc1 (stereo not shown) [Compound 143, 1-[4-(1,3-benzothiazol-2-yloxy)phenyl]-3-methylpentan-3-ol]",10 to 30%,> 90%,
,"CC(O)(CCc1ccc(Oc2nc3ccccc3s2)cc1)c1ccccc1 (stereo not shown) [Compound 144, 4-[4-(1,3-benzothiazol-2-yloxy)phenyl]-2-phenylbutan-2-ol]",10 to 30%,> 90%,
< 25%,"CCC(=O)CCc1ccc(Oc2nc3ccccc3s2)cc1 [Compound 148, 1-[4-(1,3-benzothiazol-2-yloxy)phenyl]pentan-3-one]",,,
,"CCC(O)(CCc1ccc(Oc2nc3ccccc3s2)c(Cl)c1)C(F)(F)F (stereo not shown) [Compound 151, 1-[4-(1,3-benzothiazol-2-yloxy)-3-chlorophenyl]-3-(trifluoromethyl)pentan-3-ol]",10 to 30%,10 to 30%,
,"CC(=O)c1ccc(Oc2nc3ccccc3s2)cc1 [Compound 159, 1-[4-(1,3-benzothiazol-2-yloxy)phenyl]ethanone]",,,10 to 30%
,"CCC(C)(O)c1ccc(Oc2nc3ccccc3s2)cc1 (stereo not shown) [Compound 161, 2-[4-(1,3-benzothiazol-2-yloxy)phenyl]butan-2-ol]",,,< 10%
,"CC(c1ccc(Oc2nc3ccccc3s2)cc1)N1CCCC1 (stereo not shown) [Compound 162, 2-{4-[1-(pyrrolidin-1-yl)ethyl]phenoxy}-1,3-benzothiazole]",,,< 10%
50 to 75%,"O=C(O)C1CCCN1Cc1ccc(Oc2nc3ccccc3s2)cc1 (stereo not shown) [Compound 165, 1-[4-(1,3-benzothiazol-2-yloxy)benzyl]pyrrolidine-2-carboxylic acid]",,,< 10%
,"CCNC(c1ccc(Oc2nc3ccccc3s2)cc1)C(F)(F)F (stereo not shown) [Compound 168, 1-[4-(1,3-benzothiazol-2-yloxy)phenyl]-N-ethyl-2,2,2-trifluoroethanamine]",,,< 10%
,"Cc1nc2ccc(Oc3ccc(C(C)(O)C(F)(F)F)cc3)cc2s1 (stereo not shown) [Compound 170, 1,1,1-trifluoro-2-{4-[(2-methyl-1,3-benzothiazol-6-yl)oxy]phenyl}propan-2-ol]",,,> 90%
,"Cc1nc2ccc(Oc3ccc(C(C)O)cc3)cc2s1 (stereo not shown) [Compound 171, 1-{4-[(2-methyl-1,3-benzothiazol-6-yl)oxy]phenyl}ethanol]",,,70 to 90%
50 to 75%,"CC(O)(CCc1ccc(Oc2nc3ccccc3s2)c(Cl)c1)C(F)(F)F (stereo not shown) [Compound 175, 4-[4-(1,3-benzothiazol-2-yloxy)-3-chlorophenyl]-1,1,1-trifluoro-2-methylbutan-2-ol]",,,
> 75%,"CC(C)(O)c1ccc(Oc2nc3ccccc3s2)cc1 [Compound 177, 2-[4-(1,3-benzothiazol-2-yloxy)phenyl]propan-2-ol]",,,
,"CC(=O)CCc1ccc(OCc2ccc3ccccc3n2)cc1 [Compound 189, 4-{4-[(quinolinyl-2-yl)methoxy]phenyl}butan-2-one]",,,70 to 90%
,"CCC(O)CCc1ccc(Oc2nc3ccccc3s2)c(OC)c1 (stereo not shown) [Compound 196, 1-[4-(1,3-benzothiazol-2-yloxy)-3-methoxyphenyl]pentan-3-ol]",,,> 90%
